# Read-outs that look alike come from different tables or passages of the source. Marks after values point to notes of the source that are not given here.
# What was measured:
# K562 cells [1] = assay: MTT cytotoxicity assay, FN adhered vs suspension; assay type: cell-based
# Method: Plastic 96-well Immunosorp plates (Nunc, Denmark) are coated with 50 μl (40 μg/ml) FN (Life Technologies) or BSA overnight. Cells are washed once and resuspended in serum-free RPMI 1640, then 2×10^4 (K562) cells are added to each FN coated well. 8×10^3 (K562) cells are added to BSA coated wells. Cells are incubated for 2 hours at 37° C., washed with serum free media, and put back into serum-containing media. Following 24 hours in a tissue culture incubator, drug or vehicle control is added to each well for 90 minutes, media is removed and replaced by drug-free media for 96 hours. In some experiments, the drug is allowed to remain in each well for 96 hours. 50 μl 3-[4,5-Dimethylthiazol-2-yl]-2,5-diphenyltetrazolium bromide; Thiazolyl blue (MTT dye) (Sigma) is added to each well for 4 hours, plates are centrifuged and each well aspirated. Dye is solubilized with 100 μl DMSO and plates are read at 540 nm on an automated microtiter plate reader. A blank well containing only medium and drug is also run as a control in all experiments. IC50 values are calculated by linear regression analysis of percent survival vs. drug concentration.
# The MTT assay is used to detect differences in the drug sensitivity of FN adhered vs. suspension-cultured cells following a 90 minutes or 96 hours (continuous) exposure to either mitoxantrone or melphalan (L-phenylalanine mustard or LPAM). After a 96 hour period in a cell incubator, cell survival is determined by the ability of viable cells to reduce MTT dye to formazan. IC50 values are derived through linear regression of the log-linear dose-response plots for each cell line to each drug. Student's T-test is used to analyze differences in drug response using data collected from at least three different experiments. FIGS. 8A and 8B depict representative continuous exposure experiments using mitoxantrone and LPAM, respectively.
# K562 cells [2] = assay: Adhesion of K562 cells to FN in presence of BCR/ABL inhibitor; assay type: cell-based; settings: at the concentrations of inhibitor used in cytotoxicity assays
# Method: Cellular adhesion to FN is determined. In some experiments, cells are pre-incubated for 15 minutes with P4G9, P1D6, P4C10, B3B11, or isotype antibody controls prior to application to wells.
# The BCR/ABL kinase is believed to be critical to the survival of CML cells through its effects on a number of signal transduction pathways. Inhibitors of this fusion protein show promise as apoptosis-inducing drugs in CML cells. BCR/ABL inhibition by relatively high doses of the tyrphostin AG957 can have negative effects on FN adhesion. At the concentrations of inhibitor used in cytotoxicity assays, the adhesion of K562 cells to FN is not affected by more than 20-40 percent.
# [3] = system: BCR/ABL-associated tyrosine kinase activity; assay: Anti-phosphotyrosine Western blotting; settings: K562 cells, 20 μM, 4 hour treatment
# K562 cells [4] = assay: Annexin V apoptosis analysis, FN adhered vs suspension; assay type: cell-based
# 8226/S cells = assay: Adhesion of 8226 cells to fibronectin after bisphosphonate treatment; assay type: cell-based, human; settings: 100 micromolar for 1.5 hours before plating
# 8226/S myeloma cells [5] = assay: MTT cytotoxicity assay, FN-adhered vs BSA/non-adhered cells; assay type: cell-based, human; settings: for IC50: Homo sapiens; for mean difference FN-adhered vs BSA: n=3, 1 hour drug exposure
# 8226/S myeloma cells [6] = assay: Annexin V flow cytometry analysis of apoptosis, FN-adhered vs non-adhered; assay type: cell-based, human
# 8226/S = assay type: cell-based, human
# K562/VLA-4 cells = assay: Annexin V apoptosis, FN adhesion with integrin blocking antibodies; assay type: cell-based; settings: 100 μM, 90 minutes
# K562/pcDNA3.1 cells = assay: as above; assay type: cell-based; settings: 100 μM, 90 minutes
# [7] = α4 blocking antibody prior to FN adhesion
# [8] = α5 blocking antibody prior to adhesion
# [9] = 1 uM, 1 hour exposure, Annexin V 24 hours later
smiles,measurement,setting,value
COC(=O)c1ccc(NCc2cc(O)ccc2O)cc1 [AG957],IC50,"K562 cells [1]; FN adhered, continuous exposure (96 hours), read-out: Fibronectin mean IC50",12900 nM
same,Fold resistance (FN adhered over suspension),K562 cells [1]; continuous exposure (96 hours),3.6 fold
same,IC50,"K562 cells [1]; continuous exposure (96 hours), read-out: Suspension mean IC50",3600 nM
same,effect on adhesion of K562 cells to FN,K562 cells [2],20-40%
same,BCR/ABL associated tyrosine phosphorylation,[3],completely abrogated
Nc1ccn([C@@H]2O[C@H](CO)[C@@H](O)[C@@H]2O)c(=O)n1 [Ara-C],% Control death,"K562 cells [4]; 100 μM, cont. exp.",54.9* %
same,FN: mean death,"K562 cells [4]; 100 μM, cont. exp.",6.2 ± 1.6%
same,Suspension: mean death,"K562 cells [4]; 100 μM, cont. exp.",11.3 ± 5.5%
O=C(O)CN(CCN(CC(=O)O)CC(=O)O)CC(=O)O [EDTA],effect on adhesion to fibronectin (FN) coated plates,8226/S cells,does not significantly affect cellular adhesion
"N[C@@H](Cc1ccc(N(CCCl)CCCl)cc1)C(=O)O [LPAM, L-phenylalanine nitrogen mustard]",IC50,"8226/S myeloma cells [5]; 1 h, read-out: mean IC50, cells grown on BSA",30000 nM
same,IC50,"8226/S myeloma cells [5]; read-out: mean IC50, FN-adhered cells",48000 nM
same,mean difference FN-adhered vs BSA,8226/S myeloma cells [5],1.7
same,"percentage of apoptotic cells, FN-adhered","8226/S myeloma cells [6]; 50 uM, 24 hours",16.53%
same,"percentage of apoptotic cells, non-adhered","8226/S myeloma cells [6]; 50 uM, 24 hours",21.5%
same,effect on cell surface integrin expression,8226/S,no immediate effects
same,IC50,"K562 cells [1]; Homo sapiens, K562, 1.5 h, read-out: Fibronectin mean IC50",190000 nM
same,IC50,"K562 cells [1]; Homo sapiens, K562, 1.5 h, read-out: Suspension mean IC50",29300 nM
same,IC50,"K562 cells [1]; Homo sapiens, K562, 96 h, read-out: Fibronectin mean IC50",57300 nM
same,IC50,"K562 cells [1]; Homo sapiens, K562, 96 h, read-out: Suspension mean IC50",25500 nM
same,Fold resistance (FN adhered over suspension),K562 cells [1]; continuous exposure (96 hours),2.25 fold
same,% Control death,"K562 cells [4]; 100 μM, 1 hr",29.3* %
same,FN: mean death,"K562 cells [4]; 100 μM, 1 hr",11.0 ± 8.3%
same,Suspension: mean death,"K562 cells [4]; 100 μM, 1 hr",37.5 ± 24.0%
same,% Control death,"K562 cells [4]; 100 μM, cont. exp.",58.5* %
same,FN: mean death,"K562 cells [4]; 100 μM, cont. exp.",23.3 ± 6.4%
same,Suspension: mean death,"K562 cells [4]; 100 μM, cont. exp.",39.8 ± 3.2%
same,level of cytoprotection by FN adhesion (in comparison to drug treated suspension cells),K562/VLA-4 cells; adhering through α4 and α5,30.0±1.5%
same,level of cytoprotection by FN adhesion,K562/VLA-4 cells; [7],28.4±5.0%
same,level of cytoprotection by FN adhesion,K562/VLA-4 cells; [8],20.6±1.9%
same,level of cytoprotection by FN adhesion (in comparison to drug treated suspension cells),K562/pcDNA3.1 cells; adhered through α5 alone,29.9±5.3%
same,level of cytoprotection by FN adhesion,K562/pcDNA3.1 cells; [7],29.6±2.3%
same,level of cytoprotection by FN adhesion,K562/pcDNA3.1 cells; [8],0±11.1%
"O=C1c2c(O)ccc(O)c2C(=O)c2c(NCCNCCO)ccc(NCCNCCO)c21 [Mitoxantrone, mitoxantrone]",Fold resistance (FN adhered over suspension),K562 cells [1]; 90 min. exposure,3.72 fold
same,Fold resistance (FN adhered over suspension),"K562 cells [1]; 90 min. exposure, listed as mitoxantrone",approximately 3.7 fold
same,IC50,"K562 cells [1]; Homo sapiens, K562, 1.5 h, 90 min. exposure, read-out: Suspension mean IC50",206 nM
same,IC50,"K562 cells [1]; Homo sapiens, K562, 1.5 h, FN adhered, 90 min. exposure, read-out: Fibronectin mean IC50",767 nM
same,IC50,"K562 cells [1]; Homo sapiens, K562, FN adhered, continuous exposure (96 hours), read-out: Fibronectin mean IC50",327 nM
same,IC50,"K562 cells [1]; Homo sapiens, K562, continuous exposure (96 hours), read-out: Suspension mean IC50",47.9 nM
same,Fold resistance (FN adhered over suspension),K562 cells [1]; continuous exposure (96 hours),6.83 fold
same,Fold resistance (FN adhered over suspension),"K562 cells [1]; continuous exposure (96 hours), listed as mitoxantrone",6.8 fold
same,% Control death,"K562 cells [4]; 10 μM, cont. exp.",69.4* %
same,FN: mean death,"K562 cells [4]; 10 μM, cont. exp.",29.7 ± 6.2%
same,Suspension: mean death,"K562 cells [4]; 10 μM, cont. exp.",42.8 ± 8.4%
same,% Control death,"K562 cells [4]; 50 μM, 1 hr",58.3* %
same,FN: mean death,"K562 cells [4]; 50 μM, 1 hr",27.0 ± 9.4%
same,Suspension: mean death,"K562 cells [4]; 50 μM, 1 hr",46.3 ± 8.4%
"NCCC(O)(P(=O)(O)O)P(=O)(O)O [Pamidronate, 3-Amino-1-hydroxypropane-1,1-diphosphonic acid]",effect on adhesion to fibronectin (FN) coated plates,8226/S cells,effective in preventing FN adhesion
"CC[C@]1(O)C[C@H]2CN(CCc3c([nH]c4ccccc34)[C@@](C(=O)OC)(c3cc4c(cc3OC)N(C=O)[C@H]3[C@@](O)(C(=O)OC)[C@H](OC(C)=O)[C@]5(CC)C=CCN6CC[C@]43[C@@H]65)C2)C1 [VCR, vincristine]",% Control death,"K562 cells [4]; 10 μM, cont. exp.",70.2%
same,FN: mean death,"K562 cells [4]; 10 μM, cont. exp.",12.5 ± 2.3%
same,Suspension: mean death,"K562 cells [4]; 10 μM, cont. exp.",17.8 ± 6.4%
O=P(O)(O)C(O)(Cn1ccnc1)P(=O)(O)O [Zoledronate],effect on adhesion to fibronectin (FN) coated plates,8226/S cells,effective in preventing FN adhesion
COc1cccc2c1C(=O)c1c(O)c3c(c(O)c1C2=O)C[C@@](O)(C(=O)CO)C[C@@H]3O[C@H]1C[C@H](N)[C@H](O)[C@H](C)O1 [doxorubicin],Response lower in FN-adhered cells compared to non-adhered controls,"8226/S myeloma cells [5]; FIG. 1, one hour drug exposure",12.6 fold
same,IC50,"8226/S myeloma cells [5]; 1 h, grown in suspension, one hour drug exposure, representative experiment FIG. 1, read-out: IC50, non-adhered cells",85 nM
same,IC50,"8226/S myeloma cells [5]; 1 hour drug exposure, n=3, read-out: mean IC50, cells grown on BSA",520 nM
same,IC50,"8226/S myeloma cells [5]; 24 hour pre-adhesion, 1 hour drug exposure, n=3, read-out: mean IC50, FN-adhered cells",1630 nM
same,IC50,"8226/S myeloma cells [5]; FN-adhered 24 hours prior to one hour drug exposure, representative experiment FIG. 1, read-out: IC50, adhered cells",485 nM
same,mean difference FN-adhered vs BSA,8226/S myeloma cells [5],6.9
same,survival (mitogenic effect),"8226/S myeloma cells [5]; subtoxic concentrations, FN-adhered cells",> 100%
same,"percentage of apoptotic cells, FN-adhered",8226/S myeloma cells [6]; [9],16.3%
same,"percentage of apoptotic cells, non-adhered controls",8226/S myeloma cells [6]; [9],40.3%
same,effect on cell surface integrin expression,"8226/S; acute exposure, wide range of concentrations, 1-48 hours",no immediate effects

# Reference: patent publication US20030004140A1, “Methods for modulating cell-adhesion mediated drug resistance” (priority 2000, published 2003)
